For 14 compounds, TGI and GI50 results are on record in PubChem BioAssay (NCI).

Among the test systems are NCI-H23 lung; TK-10 renal; LOX IMVI melanoma; SR leukemia; SK-MEL-28 melanoma; NCI-H522 lung; SK-MEL-2 melanoma; IGROV1 ovarian; UACC-257 melanoma.
Holding throughout (assay): NCI tumour cell line growth inhibition, 48 h

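Dose response: 5 concentrations. Exposure: 48 h. Format: 96-well plates. Endpoint: linear interpolation; highest concentration if not reached. GI50 is the concentration that inhibits growth by half. Definition used: TGI = concentration required for complete inhibition of growth.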

Take `COc1ccc(/C(Cl)=C(\c2ccc(OCCN(C)C)cc2)c2ccc(OC(=O)C(C)(C)C)cc2)cc1`: the TGI in the experiment with NCI-H23 lung stood at 29.1 µM; in the experiment on TK-10 renal, 32.3 µM; in the experiment on LOX IMVI melanoma, 19.4 µM; in the experiment with SR leukemia, 21.8 µM; with SK-MEL-28 melanoma, 23.1 µM; in the experiment with NCI-H522 lung, 28.6 µM. For the same compound, the TGI with SK-MEL-2 melanoma was found to be 29.4 µM; in the experiment with IGROV1 ovarian, 32.9 µM.
In the case of `Cc1ccc(C(SCC(N)C(=O)O)(c2ccccc2)c2ccccc2)cc1` (stereo not drawn), the GI50 in the experiment on NCI-H23 lung is 0.236 µM; with TK-10 renal, 1.22 µM; with LOX IMVI melanoma, 0.247 µM; with SR leukemia, 0.0724 µM; in the experiment on SK-MEL-28 melanoma, 6.5 µM; with NCI-H522 lung it was 0.0403 µM. The results for the GI50 with SK-MEL-2 melanoma, with IGROV1 ovarian and in the experiment with UACC-257 melanoma were 2.75 µM, 0.141 µM and 22.8 µM, respectively. The TGI is > 96 µM with NCI-H23 lung; > 100 µM in the experiment on TK-10 renal; 21.6 µM in the experiment with LOX IMVI melanoma; > 45.8 µM in the experiment on SR leukemia; > 100 µM in the experiment with SK-MEL-28 melanoma; 85.1 µM in the experiment with NCI-H522 lung. Also, the TGI in the experiment with SK-MEL-2 melanoma is 98 µM; with IGROV1 ovarian it was > 71.3 µM; in the experiment with UACC-257 melanoma it was > 100 µM.
For the compound `O=[N+]([O-])c1ccccc1C=NC12CC3CC(CC(C3)C1)C2`, the TGI in the experiment with NCI-H23 lung, in the experiment on TK-10 renal, in the experiment with LOX IMVI melanoma, with SK-MEL-28 melanoma, with NCI-H522 lung and in the experiment with SK-MEL-2 melanoma was > 100 µM in each case. In addition, the TGI in the experiment on IGROV1 ovarian and in the experiment with UACC-257 melanoma was > 100 µM in each case.
Turning to `O=C1Nc2ccccc2/C1=C\c1nc(C2CCN(S(=O)(=O)c3ccc(F)cc3)CC2)n2ccccc12`, the GI50 is 4.29 µM in the experiment with NCI-H23 lung; 2.41 µM in the experiment with TK-10 renal; 2.58 µM with LOX IMVI melanoma; > 100 µM in the experiment on SR leukemia; > 100 µM with SK-MEL-28 melanoma; 1.94 µM in the experiment on NCI-H522 lung. Further, the GI50 is 2.08 µM in the experiment with SK-MEL-2 melanoma and 2.69 µM with IGROV1 ovarian. For the same compound, the TGI was 68.4 µM in the experiment with NCI-H23 lung; 8.62 µM in the experiment with TK-10 renal; > 100 µM in the experiment on LOX IMVI melanoma; > 100 µM with SR leukemia; > 100 µM with SK-MEL-28 melanoma; 12 µM in the experiment on NCI-H522 lung. The TGI with SK-MEL-2 melanoma was 7.35 µM; in the experiment with IGROV1 ovarian, > 100 µM.
Take `CNS(=O)(=O)NN(C)S(=O)(=O)c1ccc2ccccc2c1`: the TGI in the experiment on NCI-H23 lung, in the experiment on TK-10 renal, in the experiment on LOX IMVI melanoma, in the experiment with SR leukemia, in the experiment with NCI-H522 lung and with SK-MEL-2 melanoma was > 100 µM each time. In addition, the TGI with IGROV1 ovarian and in the experiment on UACC-257 melanoma was > 100 µM each time.
As for `O=C(Nc1cc(Cl)cc(Cl)c1)/C(Cc1nc2ccccc2[nH]c1=O)=N/NC(=O)c1ccncc1`, the TGI in the experiment with TK-10 renal, in the experiment on LOX IMVI melanoma, in the experiment with SK-MEL-2 melanoma, with IGROV1 ovarian and in the experiment on UACC-257 melanoma was > 100 µM each time.
Regarding `CC1C[C@]2(C[C@@H](C)C(=O)O2)O[C@@H]2CC3(C)[C@@H]4CCC5C(C)(C)OC(=O)C[C@H]6OO[C@]4(CC[C@]3(C)C12)CC56O` (stereo partly drawn), the TGI in the experiment on NCI-H23 lung, in the experiment on TK-10 renal, with LOX IMVI melanoma, with SR leukemia, in the experiment with SK-MEL-28 melanoma and in the experiment on NCI-H522 lung was > 100 µM in each case. The TGI in the experiment on SK-MEL-2 melanoma, in the experiment with IGROV1 ovarian and with UACC-257 melanoma was > 100 µM throughout.
`COc1ccc2c(c1)CC1c3c(ccc(OC)c3O)CC2N1C` (stereo not drawn): the TGI is > 100 µM in the experiment on NCI-H23 lung; > 100 µM in the experiment on TK-10 renal; 38.9 µM with LOX IMVI melanoma; 45.4 µM in the experiment on SR leukemia; 43.8 µM with SK-MEL-28 melanoma; 37.9 µM with NCI-H522 lung. Moreover, the values for the TGI in the experiment on SK-MEL-2 melanoma, in the experiment with IGROV1 ovarian and with UACC-257 melanoma were 37.1 µM, > 100 µM and 50.6 µM, respectively.
For `O=C(CC1(O)C(=O)Nc2ccccc21)c1ccc(O)cc1` (stereo not drawn), the TGI in the experiment on NCI-H23 lung, with TK-10 renal, in the experiment on LOX IMVI melanoma, in the experiment on SR leukemia, in the experiment with SK-MEL-28 melanoma and in the experiment with SK-MEL-2 melanoma was > 100 µM throughout. Besides, the TGI in the experiment with IGROV1 ovarian and in the experiment on UACC-257 melanoma was > 100 µM each time.
For the compound `C=C1C2CC(OC(C)=O)C3(C)C(c4ccoc4)OC(=O)[C@@H](O)[C@]13OC1C[C@H](OC(C)=O)C(C)(C)[C@H](CC(=O)OC)[C@]12C` (stereo partly drawn), the TGI with NCI-H23 lung, in the experiment with TK-10 renal, in the experiment on LOX IMVI melanoma, in the experiment on SK-MEL-28 melanoma, in the experiment with SK-MEL-2 melanoma and with IGROV1 ovarian was > 100 µM throughout.
Regarding `CC(=O)[CH-]C(=O)c1ccccc1.CC(=O)[CH-]C(=O)c1ccccc1.Cl.[O-]c1ccccn1.[O-]c1ccccn1.[Ti+4]`, the GI50 in the experiment with LOX IMVI melanoma, with SK-MEL-28 melanoma, in the experiment on NCI-H522 lung, in the experiment with SK-MEL-2 melanoma, in the experiment on IGROV1 ovarian and in the experiment on UACC-257 melanoma was > 100 µM each time. In addition, the TGI with LOX IMVI melanoma, in the experiment with SK-MEL-28 melanoma, with NCI-H522 lung, in the experiment with SK-MEL-2 melanoma, in the experiment on IGROV1 ovarian and in the experiment with UACC-257 melanoma was > 100 µM each time.
On to `COc1ccc2c(c1)[n+]([O-])c(-c1ccc(C)cc1)c(N)[n+]2[O-]`, for which the TGI in the experiment with NCI-H23 lung was 48.3 µM; in the experiment with SR leukemia, > 100 µM; in the experiment on SK-MEL-28 melanoma, > 100 µM; in the experiment on NCI-H522 lung, 30.3 µM; with SK-MEL-2 melanoma, > 100 µM; with IGROV1 ovarian it was > 100 µM. This compound showed a TGI with UACC-257 melanoma of 62 µM.
`CC12CO[C@@](C)(CC(S(=O)(=O)c3ccccc3)C1)O2` (stereo partly drawn): the TGI in the experiment on NCI-H23 lung, in the experiment on SR leukemia, in the experiment with SK-MEL-28 melanoma, in the experiment with NCI-H522 lung, with SK-MEL-2 melanoma and with IGROV1 ovarian was > 100 µM in each case. Moreover, the TGI in the experiment with UACC-257 melanoma is > 100 µM.
On to `CCOC(=O)C1=C(C)N(NC(N)=O)C(C)(O)C12CCOC2=O` (stereo not drawn), for which the TGI in the experiment on LOX IMVI melanoma, in the experiment on SR leukemia, in the experiment with SK-MEL-28 melanoma, with NCI-H522 lung, with SK-MEL-2 melanoma and in the experiment with IGROV1 ovarian was > 100 µM in each case. Besides, in the experiment on UACC-257 melanoma, the TGI was > 100 µM.
